# Test results taken from paper PMC8074941, “Synthesis of cyclotetrapeptide analogues of c-PLAI and evaluation of their antimicrobial properties” (Royal Society Open Science, 2021).
# Where a SMILES comes first, the peptide text is derived from it.
# Assays:
# [1] = system: B. cereus ATCC 11778; test: microbe, parasite or virus in culture; settings: ATCC 11778, 18 h
# Procedure: (§1) Tools and materials were sterilized in an autoclave for 15 min at 121°C. Bacterial culture was grown in agar media (Mueller Hinton agar) by picking some bacterial colony using an inoculating loop, followed by incubation at 37°C for 24 h. Bacterial culture was then suspended in liquid media (Mueller Hinton Broth). The suspended bacterial culture was then incubated at 37°C for 24 h and standardized equal to 0.5 Mc Farland (2 × 10^8 CFU ml^−1). The culture was diluted into the concentration of 5 × 10^5 CFU ml^−1.
# (§2) Six tetrapeptides and six cyclotetrapeptides were dissolved in DMSO 2% with a concentration of 1 µg mL^−1. Each solution was dissolved gradually. Subsequently, 12 sample solutions, ciprofloxacin, nystatin, ketoconazole and DMSO 2% were incubated on a 96-well microplate at 37°C for 18 h. The result was interpreted using a spectrophotometer, with a wavelength of 600 nm. MIC was measured as the percentage of microbial inhibition and cell death.
# [2] = system: E. coli ATCC 11229; test: microbe, parasite or virus in culture; settings: ATCC 11229, 18 h
# Procedure: as §1, §2
# [3] = system: K. pneumonia ATCC 2357; test: microbe, parasite or virus in culture; settings: ATCC 2357, 18 h
# Procedure: as §1, §2
# [4] = system: S. aureus ATCC 6538; test: microbe, parasite or virus in culture; settings: ATCC 6538, 18 h
# Procedure: as §1, §2
# [5] = system: C. albicans ATCC 10231; settings: ATCC 10231, 18 h
# Procedure: (§3) Tools and materials were sterilized in an autoclave for 15 min at 121°C. Fungal culture was grown in agar media (Potato Dextrose agar) by picking some fungal colony using an inoculating loop, followed by incubation at 30°C for 24–48 h. Fungal culture was then suspended in liquid media (Potato Dextrose Broth). The suspended fungal culture was then incubated for 24–48 h at 30°C. The suspended fungal culture was then incubated at 30°C for 24 h and standardized equal to 0.5 Mc Farland (2 × 10^8 CFU ml^−1). The culture was diluted into the concentration of 5 × 10^5 CFU ml^−1.
# as §2
# [6] = system: T. mentagrophyte; test: microbe, parasite or virus in culture; settings: 18 h
# Procedure: as §3, §2
# [7] = system: Candida albicans; settings: synthetic product of solution-phase synthesis; strain not given; cited from earlier work
# Procedure: (§4) c-PLAI [cyclo(pro-leu-ala-ile)] is a cyclotetrapeptide that was isolated by Rungprom and co-workers in 2008 from marine Pseudomonas sp., which was associated with the Japanese seaweed Diginea sp.. All the amino acid residues of c-PLAI were reported to be L-configured. […] Later, c-PLAI was successfully synthesized using a convergent solution-phase method. ... || The antimicrobial properties of all linear and cyclic tetrapeptides were evaluated (table 3). […] The lack of information regarding the microbial strains used in the previous report led us to the assumption that the use of different strains in the assay could lead to a differen ...
# [8] = system: Klebsiella pneumoniae; settings: synthetic product of solution-phase synthesis; strain not given; cited from earlier work
# Procedure: as §4
# [9] = system: Pseudomonas aeruginosa; settings: synthetic product of solution-phase synthesis; strain not given; cited from earlier work
# Procedure: as §4
# [10] = system: Trichophyton mentagrophytes; settings: synthetic product of solution-phase synthesis; strain not given; cited from earlier work
# Procedure: as §4
# [11] = system: Bacillus subtilis; settings: c-PLAI isolated from marine Pseudomonas sp.; cited from earlier work
# Description: (§5) c-PLAI [cyclo(pro-leu-ala-ile)] is a cyclotetrapeptide that was isolated by Rungprom and co-workers in 2008 from marine Pseudomonas sp., which was associated with the Japanese seaweed Diginea sp.. All the amino acid residues of c-PLAI were reported to be L-configured. […] Later, c-PLAI was successfully synthesized using a convergent solution-phase method. ...
# [12] = system: Escherichia coli; settings: c-PLAI isolated from marine Pseudomonas sp.; cited from earlier work
# Description: as §5
# [13] = system: Micrococcus luteus; settings: c-PLAI isolated from marine Pseudomonas sp.; cited from earlier work
# Description: as §5
# [14] = system: Microsporum andouinii; settings: synthetic product of solution-phase synthesis; strain not given; cited from earlier work
# Description: as §5
# [15] = system: Staphylococcus aureus; settings: c-PLAI isolated from marine Pseudomonas sp.; cited from earlier work
# Description: as §5
# [16] = system: Vibrio anguillarum; settings: c-PLAI isolated from marine Pseudomonas sp.; cited from earlier work
# Description: as §5
structure (smiles),measurement,setting,value
"CC[C@H](C)[C@@H]1NC(=O)[C@H](C)NC(=O)[C@H](CC(C)C)NC(=O)[C@@H]2CCCN2C1=O [c-PLAI, cyclo(pro-leu-ala-ile)] (cyclo(PLAI))",minimum inhibitory concentration (MIC) B. cereus ATCC 11778,[1],125 µg/mL
same,minimum inhibitory concentration (MIC) E. coli ATCC 11229,[2],250 µg/mL
same,minimum inhibitory concentration (MIC) K. pneumonia ATCC 2357,[3],500 µg/mL
same,minimum inhibitory concentration (MIC) S. aureus ATCC 6538,[4],>1000 µg/mL
same,minimum inhibitory concentration (MIC) C. albicans ATCC 10231,[5],>1000 µg/mL
same,minimum inhibitory concentration (MIC) T. mentagrophyte,[6],125 µg/mL
same,minimum inhibitory concentration (MIC) Candida albicans,[7],6 µg/mL
same,minimum inhibitory concentration (MIC) Klebsiella pneumoniae,[8],6 µg/mL
same,minimum inhibitory concentration (MIC) Pseudomonas aeruginosa,[9],6 µg/mL
same,minimum inhibitory concentration (MIC) Trichophyton mentagrophytes,[10],6 µg/mL
same,antibacterial activity against Bacillus subtilis,[11],inactive
same,antibacterial activity against Escherichia coli,[12],inactive
same,antibacterial activity against Micrococcus luteus,[13],inactive
same,minimum inhibitory concentration (MIC) Microsporum andouinii,[14],6 µg/mL
same,antibacterial activity against Staphylococcus aureus,[15],inactive
same,antibacterial activity against Vibrio anguillarum,[16],inactive
